Measured values reported in ChEMBL document CHEMBL3885861, “Open TG-GATES”.

Species on record: Rattus norvegicus
Assay: Open TG-GATES - Regimen: Daily Repeat
Assay type: toxicity, organism-based, Sprague-Dawley
Design: regimen Daily Repeat, gender Male, age 6 weeks
Settings: in vivo, po, 0 mg/kg, route gavage, dose level Control; for APTT / Bas / Eos / Fbg / Hb / Ht / Lym / MCH / MCHC / MCV / Mono / Neu / PT / Plat / RBC / Ret / WBC: tissue Blood; for KIDNEY_L / KIDNEY_R / KIDNEY_TOTAL: tissue Kidney; for LIVER: tissue Liver; for A/G / ALP / ALT / AST / BUN / CRE / Ca / Cl / DBIL / GLC / IP / K / LDH / Na / PL / RALB / TBIL / TC / TG / TP / gamma-GTP: tissue Plasma

CC(=O)[C@@]1(O)CC[C@H]2[C@@H]3C=C(Cl)C4=CC(=O)CC[C@]4(C)[C@H]3CC[C@@]21C [CHLORMADINONE]
TERMINAL_BW (72 h, time 3 day): 240.6 g
APTT (72 h, time 3 day): 23.6 s
Bas (72 h, time 3 day): 0%
Eos (72 h, time 3 day): 1%
Fbg (72 h, time 3 day): 295 mg/dL
Hb (72 h, time 3 day): 13.3 g/dL
Ht (72 h, time 3 day): 40.9%
Lym (72 h, time 3 day): 77.6%
MCH (72 h, time 3 day): 20.3 pg
MCHC (72 h, time 3 day): 32.6%
MCV (72 h, time 3 day): 62.4 fL
Mono (72 h, time 3 day): 2.6%
Neu (72 h, time 3 day): 18.4%
PT (72 h, time 3 day): 15.6 s
Plat (72 h, time 3 day): 116.7 x10_4/uL
RBC (72 h, time 3 day): 656 x10_4/ul
Ret (72 h, time 3 day): 6.4%
WBC (72 h, time 3 day): 122.2 x10_2/uL
KIDNEY_L (72 h, time 3 day): 1 g
KIDNEY_R (72 h, time 3 day): 1 g
KIDNEY_TOTAL (72 h, time 3 day): 2 g
LIVER (72 h, time 3 day): 10.8 g
A/G (72 h, time 3 day): 1.2
ALP (72 h, time 3 day): 1828 IU/L
ALT (72 h, time 3 day): 43.8 IU/L
AST (72 h, time 3 day): 82 IU/L
BUN (72 h, time 3 day): 18.8 mg/dL
CRE (72 h, time 3 day): 0.2 mg/dL
Ca (72 h, time 3 day): 10.8 mg/dL
Cl (72 h, time 3 day): 105.8 meq/L
DBIL (72 h, time 3 day): 0 mg/dL
GLC (72 h, time 3 day): 190.6 mg/dL
IP (72 h, time 3 day): 7 mg/dL
K (72 h, time 3 day): 4.3 meq/L
LDH (72 h, time 3 day): 300.6 IU/L
Na (72 h, time 3 day): 141.6 meq/L
PL (72 h, time 3 day): 151.2 mg/dL
RALB (72 h, time 3 day): 3 g/dL
TBIL (72 h, time 3 day): 0.008 mg/dL
TC (72 h, time 3 day): 72.2 mg/dL
TG (72 h, time 3 day): 114.8 mg/dL
TP (72 h, time 3 day): 5.4 g/dL
gamma-GTP (72 h, time 3 day): 1.4 IU/L
TERMINAL_BW ([…], time 7 day): 267.1 g
TERMINAL_BW ([…], time 14 day): 325.5 g
TERMINAL_BW ([…], time 28 day): 410.9 g
APTT ([…], time 7 day): 24.1 s
Bas ([…], time 7 day): 0%
Eos ([…], time 7 day): 0.8%
Fbg ([…], time 7 day): 337 mg/dL
Hb ([…], time 7 day): 13.8 g/dL
Ht ([…], time 7 day): 41.5%
Lym ([…], time 7 day): 80.8%
MCH ([…], time 7 day): 20.3 pg
MCHC ([…], time 7 day): 33.1%
MCV ([…], time 7 day): 61.1 fL
Mono ([…], time 7 day): 2.2%
Neu ([…], time 7 day): 15.2%
PT ([…], time 7 day): 15.6 s
Plat ([…], time 7 day): 112.3 x10_4/uL
RBC ([…], time 7 day): 680 x10_4/ul
Ret ([…], time 7 day): 5.6%
WBC ([…], time 7 day): 129.9 x10_2/uL
APTT ([…], time 14 day): 23.6 s
Bas ([…], time 14 day): 0%
Eos ([…], time 14 day): 0.8%
Fbg ([…], time 14 day): 320.6 mg/dL
Hb ([…], time 14 day): 14 g/dL
Ht ([…], time 14 day): 41.9%
Lym ([…], time 14 day): 80.8%
MCH ([…], time 14 day): 19.9 pg
MCHC ([…], time 14 day): 33.5%
MCV ([…], time 14 day): 59.5 fL
Mono ([…], time 14 day): 2.2%
Neu ([…], time 14 day): 15.2%
PT ([…], time 14 day): 15.4 s
Plat ([…], time 14 day): 100.4 x10_4/uL
RBC ([…], time 14 day): 704 x10_4/ul
Ret ([…], time 14 day): 5.2%
WBC ([…], time 14 day): 126.8 x10_2/uL
APTT ([…], time 28 day): 24.8 s
Bas ([…], time 28 day): 0%
Eos ([…], time 28 day): 0.8%
Fbg ([…], time 28 day): 325 mg/dL
Hb ([…], time 28 day): 15.2 g/dL
Ht ([…], time 28 day): 44%
Lym ([…], time 28 day): 82.2%
MCH ([…], time 28 day): 19.5 pg
MCHC ([…], time 28 day): 34.4%
MCV ([…], time 28 day): 56.5 fL
Mono ([…], time 28 day): 2%
Neu ([…], time 28 day): 14.2%
PT ([…], time 28 day): 15.5 s
Plat ([…], time 28 day): 100.5 x10_4/uL
RBC ([…], time 28 day): 779 x10_4/ul
Ret ([…], time 28 day): 3%
WBC ([…], time 28 day): 118.3 x10_2/uL
KIDNEY_L ([…], time 7 day): 1.1 g
KIDNEY_R ([…], time 7 day): 1.1 g
KIDNEY_TOTAL ([…], time 7 day): 2.2 g
KIDNEY_L ([…], time 14 day): 1.2 g
KIDNEY_R ([…], time 14 day): 1.2 g
KIDNEY_TOTAL ([…], time 14 day): 2.5 g
KIDNEY_L ([…], time 28 day): 1.4 g
KIDNEY_R ([…], time 28 day): 1.4 g
KIDNEY_TOTAL ([…], time 28 day): 2.9 g
LIVER ([…], time 7 day): 12.3 g
LIVER ([…], time 14 day): 14.3 g
LIVER ([…], time 28 day): 17.2 g
A/G ([…], time 7 day): 1.2
ALP ([…], time 7 day): 1354.8 IU/L
ALT ([…], time 7 day): 39.4 IU/L
AST ([…], time 7 day): 67.8 IU/L
BUN ([…], time 7 day): 18.8 mg/dL
CRE ([…], time 7 day): 0.2 mg/dL
Ca ([…], time 7 day): 10.8 mg/dL
Cl ([…], time 7 day): 105.8 meq/L
DBIL ([…], time 7 day): 0 mg/dL
GLC ([…], time 7 day): 200.8 mg/dL
IP ([…], time 7 day): 7 mg/dL
K ([…], time 7 day): 4.2 meq/L
LDH ([…], time 7 day): 158.4 IU/L
Na ([…], time 7 day): 140.6 meq/L
PL ([…], time 7 day): 147.2 mg/dL
RALB ([…], time 7 day): 3.1 g/dL
TBIL ([…], time 7 day): 0.01 mg/dL
TC ([…], time 7 day): 76 mg/dL
TG ([…], time 7 day): 114.8 mg/dL
TP ([…], time 7 day): 5.7 g/dL
gamma-GTP ([…], time 7 day): 2.2 IU/L
A/G ([…], time 14 day): 1.1
ALP ([…], time 14 day): 1391 IU/L
ALT ([…], time 14 day): 37.4 IU/L
AST ([…], time 14 day): 64.6 IU/L
BUN ([…], time 14 day): 17.6 mg/dL
CRE ([…], time 14 day): 0.2 mg/dL
Ca ([…], time 14 day): 10.6 mg/dL
Cl ([…], time 14 day): 107 meq/L
DBIL ([…], time 14 day): 0 mg/dL
GLC ([…], time 14 day): 188 mg/dL
IP ([…], time 14 day): 6.6 mg/dL
K ([…], time 14 day): 4 meq/L
LDH ([…], time 14 day): 156.6 IU/L
Na ([…], time 14 day): 142.2 meq/L
PL ([…], time 14 day): 137.4 mg/dL
RALB ([…], time 14 day): 3 g/dL
TBIL ([…], time 14 day): 0.016 mg/dL
TC ([…], time 14 day): 69.6 mg/dL
TG ([…], time 14 day): 112.2 mg/dL
TP ([…], time 14 day): 5.7 g/dL
gamma-GTP ([…], time 14 day): 2.2 IU/L
A/G ([…], time 28 day): 1
ALP ([…], time 28 day): 988 IU/L
ALT ([…], time 28 day): 44.4 IU/L
AST ([…], time 28 day): 73.4 IU/L
BUN ([…], time 28 day): 21.6 mg/dL
CRE ([…], time 28 day): 0.2 mg/dL
Ca ([…], time 28 day): 10.6 mg/dL
Cl ([…], time 28 day): 103.8 meq/L
DBIL ([…], time 28 day): 0 mg/dL
GLC ([…], time 28 day): 201.4 mg/dL
IP ([…], time 28 day): 6.6 mg/dL
K ([…], time 28 day): 4.4 meq/L
LDH ([…], time 28 day): 217.4 IU/L
Na ([…], time 28 day): 141.2 meq/L
PL ([…], time 28 day): 131 mg/dL
RALB ([…], time 28 day): 3.1 g/dL
TBIL ([…], time 28 day): 0.01 mg/dL
TC ([…], time 28 day): 63.2 mg/dL
TG ([…], time 28 day): 112.4 mg/dL
TP ([…], time 28 day): 6.3 g/dL
gamma-GTP ([…], time 28 day): 2.2 IU/L
